The values that follow come from patent US12600709B2, “Nonpeptide somatostatin type 5 receptor agonists and uses thereof” (Crinetics Pharmaceuticals, Inc., priority 2019, dated 2026).

Test [1] addresses T1, human somatostatin receptor subtype 2 (Homo sapiens, UniProt P30874).
T1 construct: expressed in transfected cells
Description: cAMP assay for SST2R (inhibition of cAMP in CHO-K1 cells). The test is classed as cell-based. As to conditions: Table B; inhibition of cAMP via human SST2 receptor; read-out: SST2 potency. Summed up:
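Agonism read as decrease in NKH477 (1.6 μM)-stimulated cAMP: compounds applied 20 min, 37° C, with 0.2 mM IBMX, to CHO-K1 stably expressing human SSTR2. cAMP quantified in lysates by time-resolved fluorescence (HTRF kit, 1-24 h RT), standard-curve regression, then EC50.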
Background: cAMP levels reflect the balance of adenylyl cyclase and phosphodiesterase activity.

Test [2] deals with T2, human somatostatin receptor subtype 5 (Homo sapiens, UniProt P35346).
T2 construct: expressed in transfected cells
Kind of test: cAMP assay for SST5R (inhibition of cAMP in CHO-K1 cells). The conditions noted are these: for EC50: inhibition of cAMP via human SST5 receptor, read-out: SST5 potency; for Fold selectivity for SST5 vs SST2: class symbols, SST5 receptor over SST2 receptor. The test is classed as cell-based. Summed up:
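CHO-K1 cells stably expressing human SSTR5 were treated 20 min at 37 °C with compounds plus 1.6 μM NKH477 in HBSS, 0.5 mM HEPES pH 7.4, 0.1% BSA, 0.2 mM IBMX. Lysate cAMP measured by HTRF against a standard curve; EC50 from cAMP-versus-concentration plots.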

SMILES strings stand for the structures. Read-outs that look alike come from different tables or passages of the source.

T2 sequence (P35346 whole entry): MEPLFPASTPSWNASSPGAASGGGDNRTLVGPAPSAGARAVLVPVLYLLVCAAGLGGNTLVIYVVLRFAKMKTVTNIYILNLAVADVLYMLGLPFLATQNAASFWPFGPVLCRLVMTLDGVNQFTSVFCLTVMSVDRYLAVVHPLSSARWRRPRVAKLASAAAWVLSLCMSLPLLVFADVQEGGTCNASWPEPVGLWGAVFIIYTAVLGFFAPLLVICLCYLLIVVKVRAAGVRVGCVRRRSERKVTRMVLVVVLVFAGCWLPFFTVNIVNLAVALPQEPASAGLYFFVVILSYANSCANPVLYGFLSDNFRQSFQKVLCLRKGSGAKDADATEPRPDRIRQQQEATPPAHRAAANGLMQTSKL
T1 sequence (P30874 whole entry): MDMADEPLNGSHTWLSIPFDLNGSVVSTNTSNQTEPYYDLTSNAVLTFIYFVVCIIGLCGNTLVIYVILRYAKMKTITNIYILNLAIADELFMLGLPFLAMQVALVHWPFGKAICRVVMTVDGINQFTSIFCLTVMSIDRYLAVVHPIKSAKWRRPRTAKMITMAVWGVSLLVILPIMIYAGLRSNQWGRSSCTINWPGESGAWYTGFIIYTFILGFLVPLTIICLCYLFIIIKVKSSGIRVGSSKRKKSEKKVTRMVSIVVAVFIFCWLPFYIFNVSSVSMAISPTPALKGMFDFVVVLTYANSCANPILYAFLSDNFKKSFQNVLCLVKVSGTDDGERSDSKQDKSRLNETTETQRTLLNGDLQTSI

Turning to `COc1cc(-c2c(C#N)ncc(C(=O)N[C@@H](C)C(F)(F)F)c2N2CC[C@](C)(N)C2)ccn1` [1-170, 4-[(3S)-3-amino-3-methylpyrrolidin-1-yl]-2-cyano-2′-methoxy-N-[(2S)-1,1,1-trifluoropropan-2-yl]-[3,4′-bipyridine]-5-carboxamide], the EC50 is 100 to 1000 nM in test [1], less than 10 nM in test [2] (Table A) and less than 10 nM in test [2] (Table B). Moreover, in test [2] (Table B), the “Fold selectivity for SST5 vs SST2” value was “+++ (+++=>500)”.
As to `Cc1ncc(C(=O)N[C@@H](C)C(F)(F)F)c(N2CC[C@](C)(N)C2)c1-c1cc(F)cc(OC(F)F)c1` [1-171, 4-[(3S)-3-amino-3-methylpyrrolidin-1-yl]-5-[3-(difluoromethoxy)-5-fluorophenyl]-6-methyl-N-[(2S)-1,1,1-trifluoropropan-2-yl]pyridine-3-carboxamide], the EC50 was 10 to 100 nM in test [1], less than 10 nM in test [2] (Table A) and less than 10 nM in test [2] (Table B). In test [2] (Table B), the “Fold selectivity for SST5 vs SST2” value is “+++ (+++=>500)”.
Take `Cc1ncc(C(=O)NC2CC(F)(F)C2)c(N2CC[C@](C)(N)C2)c1-c1cc(F)cc(OC(F)F)c1` [1-172, 4-[(3S)-3-amino-3-methylpyrrolidin-1-yl]-N-(3,3-difluorocyclobutyl)-5-[3-(difluoromethoxy)-5-fluorophenyl]-6-methylpyridine-3-carboxamide]: the EC50 in test [1] was 100 to 1000 nM; in test [2] (Table A), less than 10 nM; in test [2] (Table B), less than 10 nM. In addition, the “Fold selectivity for SST5 vs SST2” value in test [2] (Table B) is reported as “+++ (+++=>500)”.
In the case of `Cc1ncc(C(=O)N[C@@H](C)C2CC2)c(N2CC[C@](C)(N)C2)c1-c1cc(F)cc(OC(F)F)c1` [1-173, 4-[(3S)-3-amino-3-methylpyrrolidin-1-yl]-N-[(1S)-1-cyclopropylethyl]-5-[3-(difluoromethoxy)-5-fluorophenyl]-6-methylpyridine-3-carboxamide], the EC50 was 100 to 1000 nM in test [1], less than 10 nM in test [2] (Table A) and less than 10 nM in test [2] (Table B). In test [2] (Table B), the “Fold selectivity for SST5 vs SST2” value is listed as “++ (++=100 to 499)”.
On to `Cc1ncc(C(=O)NC2CCC(F)(F)CC2)c(N2CC[C@](C)(N)C2)c1-c1cc(F)cc(OC(F)F)c1` [1-174, 4-[(3S)-3-amino-3-methylpyrrolidin-1-yl]-N-(4,4-difluorocyclohexyl)-5-[3-(difluoromethoxy)-5-fluorophenyl]-6-methylpyridine-3-carboxamide], for which the EC50 in test [1] was 100 to 1000 nM; in test [2] (Table A), less than 10 nM; in test [2] (Table B), less than 10 nM. Besides, the “Fold selectivity for SST5 vs SST2” value in test [2] (Table B) is listed as “+++ (+++=>500)”.
Regarding `CCOc1ncc(C(=O)N[C@@H](C)C2CC2)c(N2CC[C@](C)(N)C2)c1-c1cc(F)cc(F)c1` [1-176, 4-[(3S)-3-amino-3-methylpyrrolidin-1-yl]-N-[(1S)-1-cyclopropylethyl]-5-(3,5-difluorophenyl)-6-ethoxypyridine-3-carboxamide], the EC50 in test [1] was 100 to 1000 nM; in test [2] (Table A), less than 10 nM; in test [2] (Table B), less than 10 nM. Moreover, the “Fold selectivity for SST5 vs SST2” value in test [2] (Table B) is “+++ (+++=>500)”.
`C[C@H](NC(=O)c1cnc(OCC(F)F)c(-c2cc(F)cc(F)c2)c1N1CC[C@](C)(N)C1)C1CC1` [1-177, 4-[(3S)-3-amino-3-methylpyrrolidin-1-yl]-N-[(1S)-1-cyclopropylethyl]-6-(2,2-difluoroethoxy)-5-(3,5-difluorophenyl)pyridine-3-carboxamide]: the results for the EC50 in test [1], in test [2] (Table A) and in test [2] (Table B) were 10 to 100 nM, less than 10 nM and less than 10 nM, respectively. Moreover, in test [2] (Table B), the “Fold selectivity for SST5 vs SST2” value is listed as “+++ (+++=>500)”.
Regarding `C[C@H](NC(=O)c1cnc(OCC2CC2)c(-c2cc(F)cc(F)c2)c1N1CC[C@](C)(N)C1)C1CC1` [1-178, 4-[(3S)-3-amino-3-methylpyrrolidin-1-yl]-N-[(1S)-1-cyclopropylethyl]-6-(cyclopropylmethoxy)-5-(3,5-difluorophenyl)pyridine-3-carboxamide], the values for the EC50 in test [1], in test [2] (Table A) and in test [2] (Table B) were 10 to 100 nM, less than 10 nM and less than 10 nM, respectively. Further, in test [2] (Table B), the “Fold selectivity for SST5 vs SST2” value is on record as “+++ (+++=>500)”.
Turning to `COCCOc1ncc(C(=O)N[C@@H](C)C2CC2)c(N2CC[C@](C)(N)C2)c1-c1cc(F)cc(F)c1` [1-179, 4-[(3S)-3-amino-3-methylpyrrolidin-1-yl]-N-[(1S)-1-cyclopropylethyl]-5-(3,5-difluorophenyl)-6-(2-methoxyethoxy)pyridine-3-carboxamide], the values for the EC50 in test [1], in test [2] (Table A) and in test [2] (Table B) were 100 to 1000 nM, less than 10 nM and less than 10 nM, respectively. The “Fold selectivity for SST5 vs SST2” value in test [2] (Table B) was “+++ (+++=>500)”.
For the compound `C[C@H](NC(=O)c1cnc(C#N)c(-c2cc(F)cc(OC(F)F)c2)c1N1CC[C@](C)(N)C1)C(F)(F)F` [1-180, 4-[(3S)-3-amino-3-methylpyrrolidin-1-yl]-6-cyano-5-[3-(difluoromethoxy)-5-fluorophenyl]-N-[(2S)-1,1,1-trifluoropropan-2-yl]pyridine-3-carboxamide], the EC50 in test [1] was 10 to 100 nM; in test [2] (Table A), less than 10 nM; in test [2] (Table B), less than 10 nM. Also, the “Fold selectivity for SST5 vs SST2” value in test [2] (Table B) is recorded as “+++ (+++=>500)”.
As for `Cc1ncc(C(=O)NC2CCC(F)(F)CC2)c(N2CC[C@](C)(N)C2)c1-c1cc(F)cc(F)c1` [1-181, 4-[(3S)-3-amino-3-methylpyrrolidin-1-yl]-N-(4,4-difluorocyclohexyl)-5-(3,5-difluorophenyl)-6-methylpyridine-3-carboxamide], the EC50 in test [1] is 100 to 1000 nM; in test [2] (Table A) it was less than 10 nM; in test [2] (Table B), less than 10 nM. In test [2] (Table B), the “Fold selectivity for SST5 vs SST2” value was “+++ (+++=>500)”.
On to `COc1ncc(C(=O)N[C@@H](C)C(F)(F)F)c(N2CC[C@](C)(N)C2)c1-c1ccc2ncn(C)c2c1` [1-182, 4-[(3S)-3-amino-3-methylpyrrolidin-1-yl]-6-methoxy-5-(1-methyl-1H-1,3-benzodiazol-6-yl)-N-[(2S)-1,1,1-trifluoropropan-2-yl]pyridine-3-carboxamide], for which the values for the EC50 in test [1], in test [2] (Table A) and in test [2] (Table B) were more than 1000 nM, less than 10 nM and less than 10 nM, respectively. In test [2] (Table B), the “Fold selectivity for SST5 vs SST2” value was “+++ (+++=>500)”.
Take `COc1ncc(C(=O)N[C@@H](C)C(F)(F)F)c(N2CC[C@](C)(N)C2)c1-c1cccc2c1cnn2C` [1-183, 4-[(3S)-3-amino-3-methylpyrrolidin-1-yl]-6-methoxy-5-(1-methyl-1H-indazol-4-yl)-N-[(2S)-1,1,1-trifluoropropan-2-yl]pyridine-3-carboxamide]: the EC50 was more than 1000 nM in test [1], less than 10 nM in test [2] (Table A) and less than 10 nM in test [2] (Table B). In addition, the “Fold selectivity for SST5 vs SST2” value in test [2] (Table B) is recorded as “+++ (+++=>500)”.
For the compound `COc1ncc(C(=O)N[C@@H](C)C(F)(F)F)c(N2CC[C@](C)(N)C2)c1-c1cccc2c1OC(F)(F)O2` [1-184, 4-[(3S)-3-amino-3-methylpyrrolidin-1-yl]-5-(2,2-difluoro-2H-1,3-benzodioxol-4-yl)-6-methoxy-N-[(2S)-1,1,1-trifluoropropan-2-yl]pyridine-3-carboxamide], the EC50 in test [1] was 100 to 1000 nM; in test [2] (Table A), less than 10 nM; in test [2] (Table B), less than 10 nM. The “Fold selectivity for SST5 vs SST2” value in test [2] (Table B) is “+++ (+++=>500)”.
As for `COc1ncc(C(=O)N[C@@H](C)C(F)(F)F)c(N2CC[C@](C)(N)C2)c1-c1ccc2nonc2c1` [1-186, 4-[(3S)-3-amino-3-methylpyrrolidin-1-yl]-5-(2,1,3-benzoxadiazol-5-yl)-6-methoxy-N-[(2S)-1,1,1-trifluoropropan-2-yl]pyridine-3-carboxamide], the EC50 was 100 to 1000 nM in test [1], less than 10 nM in test [2] (Table A) and less than 10 nM in test [2] (Table B). Besides, in test [2] (Table B), the “Fold selectivity for SST5 vs SST2” value is on record as “+++ (+++=>500)”.
As for `COc1ncc(C(=O)N[C@@H](C)C(F)(F)F)c(N2CC[C@](C)(N)C2)c1-c1c(C)noc1C` [1-187, 4-[(3S)-3-amino-3-methylpyrrolidin-1-yl]-5-(3,5-dimethyl-1,2-oxazol-4-yl)-6-methoxy-N-[(2S)-1,1,1-trifluoropropan-2-yl]pyridine-3-carboxamide], the EC50 in test [1] is more than 1000 nM; in test [2] (Table A) it was less than 10 nM; in test [2] (Table B), less than 10 nM. In addition, the “Fold selectivity for SST5 vs SST2” value in test [2] (Table B) was “+++ (+++=>500)”.
As for `COc1ncc(C(=O)N[C@@H](C)C(F)(F)F)c(N2CC[C@](C)(N)C2)c1-c1cc(F)cc(OC(F)F)c1` [1-188, 4-[(3S)-3-amino-3-methylpyrrolidin-1-yl]-5-[3-(difluoromethoxy)-5-fluorophenyl]-6-methoxy-N-[(2S)-1,1,1-trifluoropropan-2-yl]pyridine-3-carboxamide], the figures for the EC50 in test [1], in test [2] (Table A) and in test [2] (Table B) were 100 to 1000 nM, less than 10 nM and less than 10 nM, respectively. Also, the “Fold selectivity for SST5 vs SST2” value in test [2] (Table B) is reported as “+++ (+++=>500)”.
Turning to `C[C@H](NC(=O)c1cnc(C#N)c(-c2cc(F)cc(F)c2)c1N1CC[C@](C)(N)C1)C(F)(F)F` [1-192, 4-[(3S)-3-amino-3-methylpyrrolidin-1-yl]-6-cyano-5-(3,5-difluorophenyl)-N-[(2S)-1,1,1-trifluoropropan-2-yl]pyridine-3-carboxamide], the EC50 in test [1] was 10 to 100 nM; in test [2] (Table A), less than 10 nM; in test [2] (Table B), less than 10 nM. The “Fold selectivity for SST5 vs SST2” value in test [2] (Table B) is on record as “++ (++=100 to 499)”.
Take `C[C@H](NC(=O)c1cnc(C(F)(F)F)c(-c2cc(F)cc(Cl)c2)c1N1CC[C@](C)(N)C1)C1CC1` [1-195, 4-[(3S)-3-amino-3-methylpyrrolidin-1-yl]-5-(3-chloro-5-fluorophenyl)-N-[(1S)-1-cyclopropylethyl]-6-(trifluoromethyl)pyridine-3-carboxamide]: the EC50 is 10 to 100 nM in test [1], less than 10 nM in test [2] (Table A) and less than 10 nM in test [2] (Table B). Further, in test [2] (Table B), the “Fold selectivity for SST5 vs SST2” value is given as “++ (++=100 to 499)”.
